In article PMC11990158, “Synthetic Epoxyeicosatrienoic Acid Mimics Protect Mesangial Cells from Sorafenib-Induced Cell Death” (Molecules, 2025):
Read-outs that look alike come from different tables or passages of the source.

Tests used:
[1] = target: T1, human soluble epoxide hydrolase (sEH) (Homo sapiens, UniProt P34913); experiment: Human sEH inhibition, fluorescent assay (MNPC substrate); type: biochemical; settings: for IC50: recombinant purified human sEH, 5 min preincubation at 37 °C, MNPC 5 µM, read-out: HsEH IC50
T1 sequence (P34913 1-555): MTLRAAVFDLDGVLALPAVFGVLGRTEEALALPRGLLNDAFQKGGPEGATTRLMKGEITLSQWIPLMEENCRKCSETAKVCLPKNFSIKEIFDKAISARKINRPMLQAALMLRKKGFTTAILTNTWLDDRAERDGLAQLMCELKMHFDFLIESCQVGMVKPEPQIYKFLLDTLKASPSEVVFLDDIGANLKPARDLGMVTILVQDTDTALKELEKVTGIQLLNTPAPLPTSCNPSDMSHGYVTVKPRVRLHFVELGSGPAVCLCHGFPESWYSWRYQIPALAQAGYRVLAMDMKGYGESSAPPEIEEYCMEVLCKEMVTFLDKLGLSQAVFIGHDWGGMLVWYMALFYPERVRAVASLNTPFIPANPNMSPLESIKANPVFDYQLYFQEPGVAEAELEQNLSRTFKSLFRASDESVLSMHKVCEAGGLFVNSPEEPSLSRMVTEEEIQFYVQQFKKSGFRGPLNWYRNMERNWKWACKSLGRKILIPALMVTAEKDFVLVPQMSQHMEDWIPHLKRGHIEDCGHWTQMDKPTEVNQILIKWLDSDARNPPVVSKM
Experimental: The inhibition potency of the compounds against the recombinant purified human and mouse sEH and human mEH were measured using sensitive fluorescent assays. The enzymes were diluted to the proper buffer and aliquoted in black 96-well plates. The enzymes were incubated with the inhibitors (0.4 < [I] < 50,000 nM) for 5 min at 37 °C before the introduction of the reporting substrate. For the sEH, nonfluorescent cyano(6-methoxy-naphthalen-2-yl)methyl trans-[(3-phenyloxiran-2-yl)methyl] carbonate MNPC was used as the reporting substrate at a final concentration of 5 μM [51]. For the mEH, cyano(6-methoxy-naphthalen-2-yl)methyl glycidyl carbonate (MNGC) was used at a final concentration of 5 µM. The formation of the product (6-methoxynaphthaldehyde) was measured ([…]) every 30 s for 10 min by a Molecular Device M-2 plate reader. All measurements were performed in triplicate. The inhibitory potency (IC50) was calculated by regression of at least four data points on both sides of the 50% mark.

[2] = target: T1, human soluble epoxide hydrolase (sEH); settings: cited from earlier work
[3] = system: human renal mesangial cells (HRMCs); experiment: WST-8 cell viability assay, protection against sorafenib-induced cell death; type: cell-based; settings: sorafenib 10 µM alone, 48 h
Experimental: Human renal mesangial cells (4200, ScienCell, Carlsbad, CA, USA) were cultured at 37 °C (in 5% CO2) in RPMI 1640 medium (Gibco™, LS11875093) containing 10% FBS, 100 U/mL of penicillin, and 0.1 mg/mL of streptomycin. The cells were subculture following the protocol of the manufacturer.
WST assay: To evaluate the effect of 8,9-EET analogs and sorafenib on the viability of human renal mesangial cells, a 96-well TPP plate is seeded with cells, which are then allowed to adhere. Over the course of 24 h, they undergo serum starvation before being subject to one of five treatments: Control (no treatment), Sorafenib (10 µM), Sorafenib plus 8,9-EET analogs (1 µM, 3 µM or 10 µM). After 48 h incubation, a WST assay used to gain information on cell survival; we added 10 μL WST reagent per well and incubated for 2 h. WST-8 tetrazolium salt is reduced by cellular dehydrogenases to an orange formazan product that is soluble in tissue culture medium. The amount of formazan produced is directly proportional to the number of living cells and is measured by absorbance at 460 nm. The absorbance at 460 nm is determined using a Synergy 4 Microplate Reader.

| SMILES | IC50 [1] | other results |
| --- | --- | --- |
| CCCCCCCCCCNC(=O)NCCCCOCC(=O)O [7a, 2-(4-(3-Decylureido)butoxy)acetic Acid] | 830 nM | – |
| CCCCCCCCCCCNC(=O)NCCCCOCC(=O)O [7b, 2-(4-(3-Undecylureido)butoxy)acetic Acid] | 1800 nM | – |
| CCCCCCCCCCNC(=O)NC/C=C\COCC(=O)O [7c, (Z)-2-((4-(3-Decylureido)but-2-en-1-yl)oxy)acetic Acid] | 2100 nM | – |
| CCCCCCCC/C=C\CNC(=O)NCCCCOCC(=O)O [7e, (Z)-2-(4-(3-(undec-2-en-1-yl)ureido)butoxy)acetic Acid] | 1600 nM | – |
| CCCCCCCC/C=C\CNC(=O)NC/C=C\COCC(=O)O [7f, 2-(((Z)-4-(3-((Z)-undec-2-en-1-yl)ureido)but-2-en-1-yl)oxy)acetic Acid] | 2600 nM | – |
| CCCCCCCCCCNC(=O)C(=O)NCCCCCC(=O)O [8a, 6-(2-(Decylamino)-2-oxoacetamido)hexanoic Acid] | 51000 nM | – |
| CCCCCCCCCCCNC(=O)C(=O)NCCCCCC(=O)O [8b, 6-(2-Oxo-2-(undecylamino)acetamido)hexanoic Acid] | > 100000 nM | sEH inhibition (in words) [1]: insignificant inhibitor of sEH |
| CCCCCCCCCNC(=O)C(=O)NCCCCCCC(=O)O [8c, 7-(2-(Nonylamino)-2-oxoacetamido)heptanoic Acid] | 64000 nM | – |
| CCCCCCCCCCNC(=O)C(=O)NCCCCCCC(=O)O [8d, 7-(2-(Decylamino)-2-oxoacetamido)heptanoic Acid] | 49000 nM | – |
| CCCCCCCC/C=C\CNC(=O)C(=O)NCCCCCC(=O)O [8e, (Z)-6-(2-Oxo-2-(undec-2-en-1-ylamino)acetamido)hexanoic Acid] | 19000 nM | – |
| CCCCCCCCCCCC(=O)NCCCCCC(=O)O [9a, 6-Dodecanamidohexanoic Acid] | 9600 nM | – |
| CCCCCCCCCCCCC(=O)NCCCCCC(=O)O [9b, 6-Tridecanamidohexanoic Acid] | 6400 nM | – |
| CCCCCCCCCCCC(=O)NCCCCCCC(=O)O [9c, 7-Dodecanamidoheptanoic Acid] | 2300 nM | – |
| CCCCCCCCCCCCC(=O)NCCCCCCC(=O)O [9d, 7-Tridecanamidoheptanoic Acid] | 2400 nM | – |
| CCCCCCCCCCCNC(=O)CCCCCCC(=O)O [10a, 8-Oxo-8-(undecylamino)octanoic Acid] | 3500 nM | – |
| CCCCCCCCCCCCNC(=O)CCCCCCC(=O)O [10b, 8-(Dodecylamino)-8-oxooctanoic Acid] | 2700 nM | – |
| CCCCCCCCCCCNC(=O)CCCCCCCC(=O)O [10c, 9-Oxo-9-(undecylamino)nonanoic Acid] | 900 nM | – |
| CCCCCCCC/C=C\CNC(=O)CCCCCCCC(=O)O [10d, (Z)-9-Oxo-9-(undec-2-en-1-ylamino)nonanoic Acid] | 820 nM | – |
| CNC(=O)c1cc(Oc2ccc(NC(=O)Nc3ccc(Cl)c(C(F)(F)F)c3)cc2)ccn1 [Sorafenib] | – | sEH inhibition (in words) [2]: potent sEH inhibitor; cells dying on sorafenib exposure [3]: around 90% |
